The values that follow come from patent US6825209B2, “Compounds having unique CB1 receptor binding selectivity and methods for their production and use” (Research Triangle Institute, priority 2002, dated 2004).

The structures appear in SMILES notation. Like-named read-outs stand apart in the source and are kept apart here. Marks after values point to notes of the source that are not given here.

In test [1] the test system is CB1 and CB2 receptors. Conditions: literature, cited from earlier work.
Test [2] addresses T1, CB1 receptor (Rattus norvegicus, UniProt P20272).
T1 construct: Whole rat brains or dissected regions from live CD rats; tissue Charles River or Pel-Freez Biologicals; host or cells: whole rat brain (CD rats), P2 membrane
Briefly: Radioligand displacement in whole rat brain (CB1) membrane preparations. Conditions: Tables 1 and 2. The format is binding. In short, it runs like this:
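Washed P2 membranes from whole rat brain (ca. 0.2 mg/mL) in 50 mM Tris.HCl, 1 mM EDTA, 3 mM MgCl2, pH 7.4 were incubated with radioligand and compound for 1 h at 30 °C, then filtered. IC50 values came from one- or two-site nonlinear fits and were converted to Ki by Cheng-Prusoff. Duplicates were run across 3–6 experiments.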

Test [3] concerns the target T2, human CB2 receptor (Homo sapiens, UniProt P34972).
T2 construct: expressed in transfected cells; host or cells: CHO-K1
Briefly: Displacement of 3H-CP55,940 in human CB2 receptor-transfected cells (CHO-K1). The format is binding. Conditions: radioligand 3H-CP55940, Tables 6 and 7. The procedure: (§1) Human CB2 receptor affinity. The relative selectivity of the analogs for CB1 versus CB2 receptors varied modestly regardless of the structural modifications examined to date.
Methods—binding assay in transfected cell lines. The methods used for performing binding assays in transfected cells expressing human CB1 or CB2 receptors are those used above. The CB1 receptor involved a HEK-293 expression system whereas the CB2 receptor was expressed in CHO-K1 cells. […] The incubations and separations were then performed as described above for rat brain membrane preparations.
Data analysis. Saturation and displacement data were analyzed by unweighted nonlinear regression of receptor binding data. For displacement studies, curve-fitting and IC50 calculation were done with GraphPad Prism (GraphPad Software, Inc., San Diego, Calif.), which fits the data to one and two-site models and compares the two fits statistically. A similar approach was used for the analysis of isotherm data for calculation of Kd's. A two-site fit was accepted only if it was statistically significant (p<0.05) and the following results were not observed:
IC50 values were then converted to Ki values by reported methods (Cheng and Prusoff, 1973). The statistical evaluation of curve-fitting data allowed for a non-arbitrary conclusion based on the displacement data.

The target of test [4] is T3, G-protein-linked cannabinoid receptors (Rattus norvegicus, UniProt P20272).
T3 construct: tissue Charles River or Pel-Freez Biologicals; host or cells: whole rat brain crude membrane homogenate
T3 sequence (P20272 whole entry): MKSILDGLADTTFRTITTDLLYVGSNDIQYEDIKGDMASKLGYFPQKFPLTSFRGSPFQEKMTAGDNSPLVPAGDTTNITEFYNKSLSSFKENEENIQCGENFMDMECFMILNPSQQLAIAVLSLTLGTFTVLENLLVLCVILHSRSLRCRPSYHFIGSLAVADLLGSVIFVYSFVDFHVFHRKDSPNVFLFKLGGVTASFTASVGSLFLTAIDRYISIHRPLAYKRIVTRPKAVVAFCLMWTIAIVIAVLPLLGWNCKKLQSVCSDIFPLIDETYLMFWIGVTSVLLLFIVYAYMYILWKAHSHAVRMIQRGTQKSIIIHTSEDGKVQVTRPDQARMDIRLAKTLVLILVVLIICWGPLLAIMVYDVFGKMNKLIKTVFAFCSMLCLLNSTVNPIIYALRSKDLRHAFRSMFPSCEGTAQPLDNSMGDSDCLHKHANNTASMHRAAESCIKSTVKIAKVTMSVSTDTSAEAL
Nature of the test: GTP-γ-[35S] binding in whole rat brain. The format is biochemical. Conditions: for Emax: read-out: Emax, GTP-γ-[35S] in Whole Rat Brain. The text has this:
Cannabinoid receptor-mediated alteration in GTP-γ-[^35S] binding.
(§2) Introduction. The purpose of this assay was to characterize the functional activity of lead compounds identified by the radioligand competition binding assays described above. Data from the GTP-γ-[^35S] binding assay was used to determine if a compound was an agonist, antagonist or inverse agonist at G-protein-linked cannabinoid receptors. Agonist binding to a G-protein-linked receptor results in an increased affinity of the G-protein α-subunit for GTP relative to GDP. Eventually, an active αGTP complex forms to complete the stimulus-effector coupling. The α-subunit has intrinsic GTPase activity which generates a free α-subunit which can recombine with the β- and γ-subunits readying the G-protein for another signal transduction cycle. In the current assay, GTP-γ-[^35S] cannot be hydrolyzed by the α-subunit. Thus, the amount of bound GTP-γ-[^35S] is a marker for G-protein activation. In this assay, an agonist increases basal GTP-γ-[^35S] binding, an inverse agonist decreases basal binding and basal binding would be unaffected by an antagonist.
Experimental Design. The specific binding of GTP-γ-[^35S], in the absence of test compound, was termed “basal” activity. Test compounds were characterized as agonist, antagonist, or inverse agonist based on their effect on basal activity. […] The concentrations spanned two orders of magnitude because affinity may not be related to efficacy. […] Effects of the test compounds are reported as the percent change from basal. More thorough dose-response analysis may be run to determine, for example, if a compound is a full or partial agonist.
Methods. […] In a final volume of 0.5 mL, each assay tube contained: 0.02 mg crude membrane homogenate (0.1 mL), 200 μM GDP (0.05 mL; to reduce basal G-protein activity), 0.1 nM GTP-γ-[^35S] (0.05 mL) and several concentrations of test compound (0.05 mL) or an equivalent volume of vehicle (used for determination of total binding). Nonspecific binding was determined in the presence of 100 μM unlabeled GTP-γ-S (0.05 mL). Duplicate samples were incubated for 1 h at 30° C. Since this assay is amenable for use with high throughput screening methods, the binding assays were run using a 96-well plate format. Specific binding was calculated as total binding-nonspecific binding.

The test system of test [5] is CB1 versus CB2 receptors. Briefly: Relative selectivity of the analogs for CB1 versus CB2 receptors. Conditions: CB1 versus CB2 binding, Tables 1, 6 and 7.
Text: as §1

The target in test [6] is T4, human CB1 receptor (Homo sapiens, UniProt P21554).
T4 construct: expressed in transfected cells; host or cells: HEK-293
T4 sequence (P21554 whole entry): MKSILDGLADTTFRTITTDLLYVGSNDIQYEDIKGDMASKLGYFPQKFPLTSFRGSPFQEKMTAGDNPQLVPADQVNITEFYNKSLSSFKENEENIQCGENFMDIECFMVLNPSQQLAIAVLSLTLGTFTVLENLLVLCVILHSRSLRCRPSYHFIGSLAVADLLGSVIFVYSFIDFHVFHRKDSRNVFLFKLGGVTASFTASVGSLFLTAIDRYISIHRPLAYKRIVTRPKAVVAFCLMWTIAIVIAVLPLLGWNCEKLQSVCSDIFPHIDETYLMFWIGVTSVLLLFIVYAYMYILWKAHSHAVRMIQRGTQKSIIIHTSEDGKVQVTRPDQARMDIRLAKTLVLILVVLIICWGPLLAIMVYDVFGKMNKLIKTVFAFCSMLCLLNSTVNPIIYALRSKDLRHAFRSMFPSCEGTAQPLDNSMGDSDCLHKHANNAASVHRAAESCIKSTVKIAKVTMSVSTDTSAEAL
Nature of the test: Radioligand displacement in human CB1 receptor-transfected cells (HEK-293). The format is binding. In short, it runs like this:
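Radioligand displacement was run on HEK-293 cells expressing human CB1, with incubation and separation as for rat brain membranes. IC50 values came from one- or two-site nonlinear regression and were converted to Ki by Cheng-Prusoff.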

For test [7], the target named is T5, CB1 (human) clone receptors (Homo sapiens, UniProt P21554).
T5 construct: expressed in transfected cells
T5 sequence (P21554 whole entry): as above
Nature of the test: GTP-γ-[35S] binding in CB1 (human) clone receptors. The format is biochemical. Conditions: assay run in CB1 (human) clone receptors.
Text: Cannabinoid receptor-mediated alteration in GTP-γ-[^35S] binding. In addition to assessing CB1 and CB2 receptor affinities, all of the compounds have been screened in the GTP-γ-[^35S] assay to begin characterization of the compounds as agonists, partial agonists, antagonists or inverse agonists.
as §2, with “In the current assay, GTP-γ-[^35S] cannot be hydrolyzed by the α-subunit. Thus, the amount of bound GTP-γ-[^35S] is a marker for G-protein activation. In this assay, an agonist increases basal GTP-γ-[^35S] binding, an inverse agonist decreases basal binding and basal binding would be unaffected by an antagonist.” left out
Methods. Binding was determined using membrane homogenates from whole brain The assays were conducted as previously described (Sim et al. 1996) on brain tissue prepared as described above. […] Nonspecific binding was determined in the presence of 100 μM unlabeled GTP-γ-S (0.05 mL). […] Specific binding was calculated as total binding-nonspecific binding.

[8] abbreviates: read-out: Ki, displacement of 3H-CP55940, whole rat brain membranes, radioligand 3H-CP55940.
Setting [9] is: read-out: Ki, displacement of 3H-SR141716A, whole rat brain membranes, radioligand 3H-SR141716A.
[10] abbreviates: whole rat brain membranes, radioligand 3H-CP55940.
The mark [11] stands for this setting: whole rat brain membranes, radioligand 3H-SR141716A.
The mark [12] stands for this setting: read-out: Ki, displacement of 3H-CP55940, human CB2 transfected cells.
[13] abbreviates: Ki, displacement of 3H-CP55940, whole rat brain membranes, radioligand 3H-CP55940.
The mark [14] stands for this setting: Ki, displacement of 3H-SR141716A, whole rat brain membranes, radioligand 3H-SR141716A.
The mark [15] stands for this setting: Ki, displacement of 3H-WIN55212-2, whole rat brain membranes, radioligand 3H-WIN55212-2.
Where [16] appears, read: whole rat brain membranes, radioligand 3H-WIN55212-2.
Where [17] appears, read: Ki, displacement of 3H-SR141716A.
Where [18] appears, read: Ki, displacement of 3H-WIN55212-2.
Setting [19] is: Ki, displacement of 3H-CP55940, human CB2 transfected cells.

T1 sequence (P20272 whole entry): as the sequence (P20272 whole entry) above
T2 sequence (P34972 whole entry): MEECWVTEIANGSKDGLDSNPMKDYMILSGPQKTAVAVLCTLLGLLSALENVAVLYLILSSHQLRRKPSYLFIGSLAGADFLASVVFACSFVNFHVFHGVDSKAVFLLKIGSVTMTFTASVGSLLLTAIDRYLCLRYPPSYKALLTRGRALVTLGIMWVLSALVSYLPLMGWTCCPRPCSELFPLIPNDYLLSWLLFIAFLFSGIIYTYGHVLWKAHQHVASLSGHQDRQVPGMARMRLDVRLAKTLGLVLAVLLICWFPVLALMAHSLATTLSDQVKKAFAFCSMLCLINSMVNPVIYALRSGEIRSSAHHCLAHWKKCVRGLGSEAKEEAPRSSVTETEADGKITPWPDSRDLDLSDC

Consider `CCCCCCC(C)(C)c1ccc([C@@H]2C[C@H](O)CC[C@H]2CCCO)c(O)c1` [CP55,940], for which, in test [1], the “affinity at CB1 and CB2 receptor sites” value was “approximately equal affinity”.

For the compound `Cc1c(C(=O)NCCO)nn(-c2ccc(Cl)cc2Cl)c1-c1ccc(Cl)cc1` [MF9725-93-31], the results for the Ki in test [2] (setting [8]), in test [2] (setting [9]) and in test [3] (setting [12]) were 0.385 µM, 0.343 µM and 4.27 µM, respectively. Also, the “Max. Disp. %, 3H-CP55940” value was 73.2% in test [2] (setting [10]) and 33.3% in test [3] (human CB2 transfected cells). Further, the “Max. Disp. %, 3H-SR141716A” value in test [2] (setting [11]) is given as 85.5%. In addition, in test [4] (whole rat brain membranes, effects reported as percent change from basal), the Emax is -76.5%. Besides, the EC50 in test [4] (whole rat brain membranes, value above highest concentration tested (footnote), read-out: EC50, GTP-γ-[35S] in Whole Rat Brain, value is above highest concentration on displacement curve) was not below 1670 µM. Moreover, the “CB1 selectivity (CB1 versus CB2)” value in test [5] stood at 10 fold.

For `CCCCCCCCNC(=O)c1nn(-c2ccc(Cl)cc2Cl)c(-c2ccc(Cl)cc2)c1C` [MF9879-164-28], the Ki in test [2] (setting [13]) turned out to be 0.135 µM; in test [2] (setting [14]), 0.0374 µM; in test [2] (setting [15]), 0.0362 µM; in test [6] (Ki, displacement of 3H-CP55940), 0.288 µM; in test [6] (setting [17]), 0.0447 µM; in test [6] (setting [18]), 0.267 µM. In test [3] (setting [19]), this compound showed a Ki of 98.4 µM. The “Max. Disp. %, 3H-CP55940” value was determined as 80.2% in test [2] (setting [10]), 70.6% in test [6] and 45.3% in test [3] (human CB2 transfected cells). Moreover, the “Max. Disp. %, 3H-SR141716A” value in test [2] (setting [11]) is reported as 75.2%; in test [6], 67.8%. For the same compound, the “Max. Disp. %, 3H-WIN55212-2” value in test [2] (setting [16]) came out at 68.4%; in test [6], 35.2%. Also, the EC50 in test [4] was not below 677 µM. The Emax in test [4] was -21.3%.

On to `CCCCCCCCCNC(=O)c1nn(-c2ccc(Cl)cc2Cl)c(-c2ccc(Cl)cc2)c1C` [MF10110-10-21], for which the inhibition constant Ki is 0.333 µM in test [2] (setting [13]); 0.0882 µM in test [2] (setting [14]); 0.0682 µM in test [2] (setting [15]); 0.307 µM in test [6] (Ki, displacement of 3H-CP55940); 0.0565 µM in test [6] (setting [17]); 3.55 µM in test [6] (setting [18]). The compound further yielded a Ki in test [3] (setting [19]) of 22.9 µM. Moreover, the “Max. Disp. %, 3H-CP55940” value in test [2] (setting [10]) is 79.5%; in test [6], 68.8%; in test [3] (human CB2 transfected cells), 53.8%. In addition, the “Max. Disp. %, 3H-SR141716A” value was 85.8% in test [2] (setting [11]) and 86.9% in test [6]. In addition, the “Max. Disp. %, 3H-WIN55212-2” value in test [2] (setting [16]) came out at 68.6%; in test [6], 28.3%. Further, the EC50 in test [4] (EC50, GTP-γ-[35S] in Whole Rat Brain, whole rat brain membranes, inverse agonist/antagonist activity) turned out to be 294 µM. Also, the Emax in test [4] is -20.1%.

For the compound `CCOC(=O)c1nn(-c2ccc(Cl)cc2Cl)c(-c2ccc(Cl)cc2)c1C` [SH9631-56], the Ki worked out at 0.0318 µM in test [2] (setting [8]); 0.0289 µM in test [2] (setting [9]); 0.0448 µM in test [6] (read-out: Ki, displacement of 3H-CP55940); 4.4 µM in test [3] (setting [12]). Besides, the “Max. Disp. %, 3H-CP55940” value in test [2] (setting [10]) turned out to be 91.7%; in test [6] (human CB1 transfected cells, radioligand 3H-CP55940, Table 3) it was 91.0%; in test [3] (human CB2 transfected cells), 51.4%. Further, in test [2] (setting [11]), the “Max. Disp. %, 3H-SR141716A” value is on record as 96.9%. For the same compound, the EC50 in test [7] came out at 0.195 µM. In addition, the “Emax, GTP-γ-[35S]” value in test [7] (percent change from basal) was −18.4^c.

For the compound `Cc1c(C(=O)NN2CCCCC2)nn(-c2ccc(Cl)cc2Cl)c1-c1ccc(Cl)cc1` [SR141716A], the “Ki for CB1 lower than for CB2” value in test [1] (selectivity for the CB1 over the CB2 receptor) is given as “over 50 fold”.
